≈ marks a conversion by molar mass, not a printed value. Where a SMILES comes first, the peptide text is derived from it. [ ]: non-standard residue; d: D form. dHyp = O=C(O)[C@H]1C[C@H](O)CN1
Tests used:
[1] = test system: BV2 (mouse microglia) cell line; test: pHrodo-myelin phagocytosis/cell viability high content imaging assay: phagocytosis signal; format: cell-based
Method in brief: (§1)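 Phagocytosis and cell viability were measured together by high content imaging about 22 hours after pHrodo-myelin addition. Three measurements were extracted from the images. Intensity increase and decrease were taken as early and later apoptosis, respectively.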

[2] = test system: HMC3 (human microglia) cell line; test: as above; format: cell-based
Method in brief: as §1

[3] = test system: BV2 (mouse microglia) cell line; test: pHrodo-myelin phagocytosis/cell viability high content imaging assay: viability (cell count, nuclear area, nuclear intensity)
Method in brief: (§2)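 Viability was read as total cell count per well by high-content imaging, with mean average nuclear intensity per cell profiling apoptosis (rise early, fall late). Compounds were given at 10 μM for 48 h, pHrodo-myelin being added for the final 20 h. Values are means of two points as % untreated control.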

[4] = test system: HMC3 (human microglia) cell line; test: as above; settings: HMC3, 10 μM
Method in brief: as §2

[5] = pH 7.4, aqueous buffer, kinetic from dmso stock

solubility kinetic (physchem; [5]) [µM]	SMILES	Stimulation of mouse microglial phagocytosis at 10 μM (>150% control) ([1]; BV2, 10 μM)	Inhibition of human microglial phagocytosis at 10 μM (<70% control) ([2]; HMC3, 10 μM)	also measured
134 (≈ 96.7 µg/mL)	C=Cc1c(C)c2cc3nc(cc4[nH]c(cc5nc(cc1[nH]2)C(C)=C5CCC(=O)O)c(CCC(=O)OC)c4C)[C@@]1(C)C3=CC=C(C(=O)OC)[C@H]1C(=O)OC [Verteporfin]	Y (The compound was found to stimulate phagocytosis (response threshold: >150% control) when murine immortalized microglial cells were dosed at 10 μM (Y: yes))	Y (The compound was found to inhibit phagocytosis (response threshold: <70% control) when human immortalized microglial cells were dosed at 10 μM (Y: yes))	
0.9 (≈ 0.505 µg/mL)	CC(C)(C)c1cc(NC(=O)Nc2ccc(-c3cn4c(n3)sc3cc(OCCN5CCOCC5)ccc34)cc2)no1 [Quizartinib]			
1 (≈ 0.533 µg/mL)	CNC(=O)c1c(F)cccc1Nc1nc(Nc2cc3c(cc2OC)CCN3C(=O)CN(C)C)nc2[nH]ccc12 [GSK1838705A]		Y (The compound was found to inhibit phagocytosis (response threshold: <70% control) when human immortalized microglial cells were dosed at 10 μM (Y: yes))	Mouse microglial cytotoxicity at 10 μM (<70% control) ([3]; BV2, 10 μM): Y (The compound was found to be cytotoxic (cell count threshold: <70% control) when murine immortalized microglial cells were dosed at 10 μM (Y: yes))
163 (≈ 51.9 µg/mL)	CC(=O)N1CCC(NC(=O)NC23CC4CC(CC(C4)C2)C3)CC1 [AR9281]	Y (The compound was found to stimulate phagocytosis (response threshold: >150% control) when murine immortalized microglial cells were dosed at 10 μM (Y: yes))		
10.8	Cc1c(-c2ccc(O)cc2)n(Cc2ccc(OCCN3CCCCCC3)cc2)c2ccc(O)cc12 [Bazedoxifene acetate]			Inhibition of mouse microglial phagocytosis at 10 μM (<70% control) ([1]; 10 μM, BV2): Y (The compound was found to inhibit phagocytosis (response threshold: <70% control) when murine immortalized microglial cells were dosed at 10 μM (Y: yes)); Inhibition of human microglial phagocytosis at 10 μM (<70% control) ([2]; 10 μM, HMC3): Y (The compound was found to inhibit phagocytosis (response threshold: <70% control) when human immortalized microglial cells were dosed at 10 μM (Y: yes))
< 0.5	CCCN(CC1CC1)c1nc(C)nc(Nc2c(Cl)cc(Cl)cc2Cl)c1Cl.Cl [NBI 27914 (Compound 7a)]	Y (The compound was found to stimulate phagocytosis (response threshold: >150% control) when murine immortalized microglial cells were dosed at 10 μM (Y: yes))		Mouse microglial cytotoxicity at 10 μM (<70% control) ([3]; BV2, 10 μM): Y (The compound was found to be cytotoxic (cell count threshold: <70% control) when murine immortalized microglial cells were dosed at 10 μM (Y: yes))
108 (≈ 37.9 µg/mL)	Cc1cc(NC(=O)Cc2ccc(F)c(Cl)c2)n(C2CCCCC2)n1 [VU0810464]			
1.5 (≈ 1 µg/mL)	CN(C)CC#Cc1ccc(OCCCc2sc(N3CCc4cccc(C(=O)Nc5nc6ccccc6s5)c4C3)nc2C(=O)O)c(F)c1 [A-1155463]	Y (The compound was found to stimulate phagocytosis (response threshold: >150% control) when murine immortalized microglial cells were dosed at 10 μM (Y: yes))	Y (The compound was found to inhibit phagocytosis (response threshold: <70% control) when human immortalized microglial cells were dosed at 10 μM (Y: yes))	
87.3 (≈ 65.3 µg/mL)	COc1ccc(CC[C@@H](OC(=O)[C@@H]2CCCCN2C(=O)[C@H](c2cc(OC)c(OC)c(OC)c2)C2CCCCC2)c2cccc(OCC(=O)O)c2)cc1OC [SAFit1]			Stimulation of mouse microglial phagocytosis at 10 μM (>150% control) ([1]; 10 μM, BV2): Y (The compound was found to stimulate phagocytosis (response threshold: >150% control) when murine immortalized microglial cells were dosed at 10 μM (Y: yes))
115 (≈ 54.3 µg/mL)	CNC(=O)CN1CCC(Oc2cc3c(Nc4cccc(Cl)c4F)ncnc3cc2OC)CC1 [Sapitinib (AZD8931)]			Inhibition of mouse microglial phagocytosis at 10 μM (<70% control) ([1]; BV2, 10 μM): Y (The compound was found to inhibit phagocytosis (response threshold: <70% control) when murine immortalized microglial cells were dosed at 10 μM (Y: yes)); Stimulation of human microglial phagocytosis at 10 μM (>150% control) ([2]; HMC3, 10 μM): Y (The compound was found to stimulate phagocytosis (response threshold: >150% control) when human immortalized microglial cells were dosed at 10 μM (Y: yes))
1.2 (≈ 0.588 µg/mL)	O=S(=O)(c1ccc2c(c1)C(=NO)c1cc(S(=O)(=O)N3CCCCC3)ccc1-2)N1CCCCC1 [CA3 (CIL56)]		Y (The compound was found to inhibit phagocytosis (response threshold: <70% control) when human immortalized microglial cells were dosed at 10 μM (Y: yes))	Mouse microglial cytotoxicity at 10 μM (<70% control) ([3]; BV2, 10 μM, cell count <70% control): Y (The compound was found to be cytotoxic (cell count threshold: <70% control) when murine immortalized microglial cells were dosed at 10 μM (Y: yes)); Human microglial cytotoxicity at 10 μM (<70% control) ([4]; cell count <70% control): Y (The compound was found to be cytotoxic (cell count threshold: <70% control) when human immortalized microglial cells were dosed at 10 μM (Y: yes)); Inhibition of mouse microglial phagocytosis at 10 μM (<70% control) ([1]; BV2, 10 μM): Y (The compound was found to inhibit phagocytosis (response threshold: <70% control) when murine immortalized microglial cells were dosed at 10 μM (Y: yes))
	CC(=O)N[C@H](Cc1ccc(O)cc1)C(=O)N1CCC[C@@H]1C(=O)N1C[C@@H](O)C[C@@H]1C(=O)NCC(=O)N[C@H](C)C(=O)NCC(N)=O [Rotigaptide] (Ac-[dY][dP][dHyp]G[dA]G-NH2)			solubility kinetic (physchem; pH 7.4): 177 µM (≈ 110 µg/mL)
8.7 (≈ 3.77 µg/mL)	CC(C)Nc1cc(-c2c[nH]c(C(=O)N[C@H](CO)c3cccc(Cl)c3)c2)c(Cl)cn1 [Ulixertinib]			Mouse microglial cytotoxicity at 10 μM (<70% control) ([3]; 10 μM, BV2): Y (The compound was found to be cytotoxic (cell count threshold: <70% control) when murine immortalized microglial cells were dosed at 10 μM (Y: yes)); Stimulation of mouse microglial phagocytosis at 10 μM (>150% control) ([1]; 10 μM, BV2): Y (The compound was found to stimulate phagocytosis (response threshold: >150% control) when murine immortalized microglial cells were dosed at 10 μM (Y: yes)); Inhibition of human microglial phagocytosis at 10 μM (<70% control) ([2]; 10 μM, HMC3): Y (The compound was found to inhibit phagocytosis (response threshold: <70% control) when human immortalized microglial cells were dosed at 10 μM (Y: yes))
117 (≈ 49.6 µg/mL)	CCCCc1nc(Cl)c(CO)n1Cc1ccc(-c2ccccc2-c2nn[nH]n2)cc1 [Losartan]			

SMILES	solubility kinetic (physchem; [5]) [µM]	Stimulation of mouse microglial phagocytosis at 10 μM (>150% control) ([1]; BV2, 10 μM)	Inhibition of human microglial phagocytosis at 10 μM (<70% control) ([2]; HMC3, 10 μM)	also measured
CCc1cc2c(cc1N1CCC(N3CCOCC3)CC1)C(C)(C)c1[nH]c3cc(C#N)ccc3c1C2=O [Alectinib]	0.6 (≈ 0.29 µg/mL)	Y (The compound was found to stimulate phagocytosis (response threshold: >150% control) when murine immortalized microglial cells were dosed at 10 μM (Y: yes))	Y (The compound was found to inhibit phagocytosis (response threshold: <70% control) when human immortalized microglial cells were dosed at 10 μM (Y: yes))	Human microglial cytotoxicity at 10 μM (<70% control) [4]: Y (The compound was found to be cytotoxic (cell count threshold: <70% control) when human immortalized microglial cells were dosed at 10 μM (Y: yes))
CC(C)CCC[C@@H](C)[C@H]1CC[C@H]2[C@@H]3CC[C@H]4C[C@H](N)CC[C@]4(C)[C@H]3CC[C@]12C [3α-Aminocholestane]	2.2 (≈ 0.853 µg/mL)			Mouse microglial cytotoxicity at 10 μM (<70% control) ([3]; 10 μM, BV2): Y (The compound was found to be cytotoxic (cell count threshold: <70% control) when murine immortalized microglial cells were dosed at 10 μM (Y: yes)); Stimulation of mouse microglial phagocytosis at 10 μM (>150% control) ([1]; 10 μM, BV2): Y (The compound was found to stimulate phagocytosis (response threshold: >150% control) when murine immortalized microglial cells were dosed at 10 μM (Y: yes)); Inhibition of human microglial phagocytosis at 10 μM (<70% control) ([2]; 10 μM, HMC3): Y (The compound was found to inhibit phagocytosis (response threshold: <70% control) when human immortalized microglial cells were dosed at 10 μM (Y: yes))

Source: publication PMC9019904, “AD Informer Set: Chemical tools to facilitate Alzheimer's disease drug discovery” (Alzheimer's & Dementia : Translational Research & Clinical …, 2022)
